Patent US20220409587A1, “METHODS OF TREATING HIV-1 INFECTION” (BIOTRON LIMITED, priority 2019, published 2022)
Values joined by “and” are separate entries in the source; they are usually repeats but may differ in a detail not shown here. Equal values may be shown once. “Also recorded” adds a separate entry of the source.

What was measured:
Assay type in all cases: in vivo, human
HIV-1 = test: Phase 2 study: plasma HIV-1 viral load decay (Roche COBAS TaqMan HIV-1); conditions: 200 mg BIT225 QD + ART vs placebo QD + ART, 12 weeks, treatment-naive HIV-1 patients
Protocol: (§1) A Phase 2, multi-centre, randomized, placebo-controlled, double-blind study of BIT225 in combination with ART (Atripla—efavirenz/emtricitabine/tenofovir DF) was undertaken in patients with HIV-1 infection that were treatment-naive. Patients were randomized into two groups on a 2:1 basis, with one group receiving BIT225 (100 mg QD; 6 patients: placebo; 3 patients), and one group receiving BIT225 (200 mg QD, 18 patients: placebo; 9 patients), with a total of 36 patients enrolled in the trial. The 100 mg BIT225 group was primarily included for detailed PK analyses due to limitations on the quantity of blood that could be drawn at time points coinciding with analyses of viral load decay, which were limited to the 200 mg cohort. All subjects received the standard dose of ART in addition to 12 weeks BIT225 or placebo study treatment. At the conclusion of the trial, patients remained on ART as per standard treatment protocols. HIV-1-infected subjects, males and females, aged 18 to 65 years inclusive, who were naive to ART were recruited. Individuals had HIV-1 RNA>5,000 copies/mL and CD4^+ T cell count>100 cells/mm^3.
(§2) There were two treatment cohorts. The first cohort received 100 mg capsule of BIT225 or placebo QD with ART for 12 weeks. […]
HIV-1 plasma viral load was determined in real time by Roche COBAS TaqMan HIV-1 currently approved version (Roche Diagnostics).

[1] = tested on: activated CD4^+ T cells (CD4^+/HLA-DR^+/CD38^+); test: Phase 2 study: activated CD4+ T cell numbers by flow cytometry
Protocol: as §1, with “Individuals had HIV-1 RNA>5,000 copies/mL and CD4^+ T cell count>100 cells/mm^3.” left out
(§3) Analyses for cell populations (T cells and NK cells) were performed in real time by flow cytometry (CD4^+, CD8^+, CD38^+, and HLA-DR^+ for T cells, and CD16^+, CD45^+ and CD56^+ for NK cells). […] Immune activation markers measured by flow cytometry were performed in real time alongside CD4^+, CD8^+ and CD14^+ enumeration at HIV-NAT laboratory, Bangkok Thailand.

[2] = tested on: activated CD8^+ cell (CD8^+/HLA-DR^+/CD38^+); test: Phase 2 study: activated CD8+ T cell numbers by flow cytometry; conditions: 200 mg BIT225 QD + ART vs placebo + ART, 12 weeks; ±29 SEM; P<0.01
Protocol: as §1, with “Individuals had HIV-1 RNA>5,000 copies/mL and CD4^+ T cell count>100 cells/mm^3.” left out
as §3

NK cells = test: Phase 2 study: NK cell numbers by flow cytometry
Protocol: as §1
There were two treatment cohorts. The first cohort received 100 mg capsule of BIT225 or placebo QD with ART for 12 weeks. Cohort 2 were given two 100 mg capsules BIT225 (200 mg BIT225) or placebo QD with ART. ART was 1 fixed dose combination tablet of Atripla.
Analyses for cell populations (T cells and NK cells) were performed in real time by flow cytometry (CD4^+, CD8^+, CD38^+, and HLA-DR^+ for T cells, and CD16^+, CD45^+ and CD56^+ for NK cells). ELISA assays were run for sCD163 and Th17 related cytokines. Immune activation markers measured by flow cytometry were performed in real time alongside CD4^+, CD8^+ and CD14^+ enumeration at HIV-NAT laboratory, Bangkok Thailand.

soluble CD163 (sCD163) = test: Phase 2 study: plasma sCD163 by Macro163 ELISA
Protocol: as §1, §2
The macrophage and monocyte activation marker sCD163 was measured in plasma by Macro163™ ELISA (IQ Products, Groningen, The Netherlands).

IL-21 = test: Phase 2 study: plasma Th17 related cytokines (MSD U-Plex), IL-21
Protocol: as §1, with “At the conclusion of the trial, patients remained on ART as per standard treatment protocols. HIV-1-infected subjects, males and females, aged 18 to 65 years inclusive, who were naive to ART were recruited. Individuals had HIV-1 RNA>5,000 copies/mL and CD4^+ T cell count>100 cells/mm^3.” left out
(§4) Th17 cells regulate other immune cells, specifically neutrophils and macrophages, by secreting a variety of cytokines in response to pathogens. Plasma samples were analysed to determine the level of the Th17 related cytokines (IL-21, IFN-γ, IL-1p, IL-6, IL-10, IL-17A, IL-17E/IL-25, IL-17F, IL-22, and TNF-α) during the 12 week treatment period using electro-chemiluminescence MSD U-Plex Biomarker Group Th17 (Human Combo 2) Human Multiplex Assay (MesoScaleDiscovery, MD, USA).

IFN-γ = test: Phase 2 study: plasma Th17 related cytokines (MSD U-Plex), IFN-γ
Protocol: as §1, with “At the conclusion of the trial, patients remained on ART as per standard treatment protocols. HIV-1-infected subjects, males and females, aged 18 to 65 years inclusive, who were naive to ART were recruited. Individuals had HIV-1 RNA>5,000 copies/mL and CD4^+ T cell count>100 cells/mm^3.” left out
as §4

IL-6 = test: Phase 2 study: plasma Th17 related cytokines (MSD U-Plex), IL-6
Protocol: as §1, with “At the conclusion of the trial, patients remained on ART as per standard treatment protocols. HIV-1-infected subjects, males and females, aged 18 to 65 years inclusive, who were naive to ART were recruited. Individuals had HIV-1 RNA>5,000 copies/mL and CD4^+ T cell count>100 cells/mm^3.” left out
as §4

IL-10 = test: Phase 2 study: plasma Th17 related cytokines (MSD U-Plex), IL-10; conditions: BIT225 cohort vs placebo (data not shown)
Protocol: as §1, with “At the conclusion of the trial, patients remained on ART as per standard treatment protocols. HIV-1-infected subjects, males and females, aged 18 to 65 years inclusive, who were naive to ART were recruited. Individuals had HIV-1 RNA>5,000 copies/mL and CD4^+ T cell count>100 cells/mm^3.” left out
as §4

Structure (SMILES): Cn1cc(-c2cccc3cc(C(=O)NC(=N)N)ccc23)cn1 [BIT225, N-carbamimidoyl-5-(1-methylpyrazol-4-yl)naphthalene-2-carboxamide]
- Plasma HIV-1 RNA decline versus placebo (HIV-1): declined in a similar manner
- Time activated CD4+ T cells remained elevated ([1]; 100 mg BIT225 QD + ART (data not shown)): approximately 50 days
- Change from baseline of activated CD4+ T cell numbers compared to placebo ([1]; 200 mg BIT225 QD + ART vs placebo + ART, 12 weeks): sustained delay in decline; also recorded: statistically significant delayed reduction
- Estimated average difference in activated CD8+ T cells, BIT225 cohort versus placebo (two-factor linear model) [2]: 85 cells/ml
- Estimated average difference in NK cells, BIT225 cohort versus placebo (two-factor linear model) (NK cells; 200 mg BIT225 QD + ART vs placebo + ART, 12 weeks, SEM, P<0.01): 71 cells/ml and 71±23 cells/ml
- Time to peak of NK cell numbers after commencing treatment (NK cells; BIT225 + ART): 24 to 48 h
- NK cell numbers during treatment versus placebo (NK cells; BIT225 + ART, 12-week treatment): remained higher
- Linear model estimate β1 of larger overall decrease in sCD163 for BIT225 versus placebo (soluble CD163 (sCD163); 200 mg BIT225 QD + ART vs placebo + ART, 12 weeks, ±SE, P=0.036): 208 ± 99 ng/mL
- sCD163 over 12 weeks compared to ART alone (soluble CD163 (sCD163); BIT225 + ART vs ART + placebo): significantly reduced; also recorded: statistically significant decline
- Plasma IL-21 versus placebo over the first 3 weeks (ANOVA) (IL-21; 200 mg BIT225 QD + ART vs placebo + ART, P=0.02): statistically significant increase; also recorded: statistically significantly increased
- Time of peak plasma IL-21 (IL-21; BIT225 + ART): 3 week
- Subjects with IFN-γ transient spike (IFN-γ; BIT225 cohort (data not shown)): 16 of 18
- IFN-γ cohort mean response (IFN-γ; BIT225 cohort + ART): transient spike at Day 14
- Subjects with transient spike of plasma IL-6 in first 3 weeks (IL-6; BIT225 + ART): 8 of 18
- IL-6 response after 3 weeks, change from baseline (Log10) (IL-6; BIT225 cohort vs placebo (data not shown)): remained higher than placebo
- IL-10 levels versus placebo over 12 weeks (IL-10): not statistically significant
